Assay results: paper PMC11428291, “Peptide and Protein Cysteine Modification Enabled by Hydrosulfuration of Ynamide” (ACS Central Science, 2024)

Columns and labels:
[1] = Water solubility of ynamides (qualitative); assay type: physicochemical; conditions: qualitative statement
Method: To this end, N-methylynetoluenesulfonamide (MYTsA, 2a), the first-generation ynamide coupling reagent for peptide synthesis,[39] was tested in our model reaction as a reference. […] Further optimization was performed to implement this chemistry under biocompatible conditions, such as aqueous media, near-neutral pH (6–8), and physiological temperature. In parallel, the poor water-solubility of 2a led to a sluggish reaction in an MeCN/phosphate buffer mixture (pH 8, 3:7), giving 3aa in 80% yield over 24 h. Enhancing the solubility by replacing the methyl group of R^2 with a 2-hydroxyethyl group (2b) led to a more efficient reaction, with an 89% yield of 3ab. […] Substituting the p-toluenesulfonyl (Ts) group of 2a with a trifluoromethylsulfonyl (triflyl, Tf, 2e) group enhanced both the solubility in water and the reaction efficiency due to its stronger electron-withdrawing ability and increased hydrophilicity. This modification facilitated the reaction to completion within 20 min in phosphate buffer with minimal MeCN (5%), yielding the product (3ae) as a single Z-isomer in 95% yield, confirmed by NMR (Z:E > 99:1; see zoom-in ^1H NMR spectra in Figure 2b and details in SI). […] This underscores the versatility of ynamide functionalization via R^2 group modification, promising broad applicability in synthesizing diverse conjugates. […]

[2] = Reaction rate study: hydrosulfuration of glutathione (GSH) to ynamide; conditions: pseudo-first order, ynamide 0.25 mM, GSH 2.5, 5 and 10 mM, 5% MeCN, pH 8.0, 0.2 M PBS, 37 °C, UV-Visible absorbance at 244 nm, triplicate
Method: In line with our proposal, the conjugation of the optimal ynamide (2e) and peptide (1a) was sensitive to pH and was sluggish under neutral conditions (pH 6–7.5, Figure S14). […] To further dissect the reaction mechanism, the reaction was carried out in the presence of different types of radical scavengers; no negative effect on the reaction efficacy was observed. In addition, the thiyl radical chemistry of ynamide was examined in aqueous medium, but no reaction was detected (see the SI for details, Schemes S15–S16).
9) Reaction Rate study of the Peptide Conjugates
HO N N OH PBS, pH = 8.0, MeCN, 37 °CHONN OH
Figure S64.Reaction Rate study of the Peptide Conjugates
The reaction between Ynamide (2e) and glutathione (GSH) was measured under pseudo- first order conditions with 10, 20 and 40 equivalents of GSH by real-time monitor of conjugate reactio n using UV-Visible absorbance at 244 nm (max absorbance wavelength for 3me). Solutions were prepared in MeCN (5%), pH 8.0, 0.2 M PBS with Ynamide (0.25 mM) and GSH (2.5 mM, 5 mM and 10 mM). Data was recorded for 2-5 min and performed in triplicate at 37 ℃. The averages of the observed rates (kobs), determined by nonlinear regression analysis of the data points were plotted against the concentration of GSH and the bimolecular rate constant k2, […]
8. Trastuzumab R eduction […]

[3] = Stability of peptide conjugate in the presence of external thiol (2-mercaptoethanol); assay type: physicochemical; conditions: conjugate 1 mM, pH 8.0 (Figure S58)
Source text: (§1) The stability of the conjugated products is of the utmost importance for developing a powerful peptide and protein modification strategy.[6] […] Moreover, the cleavage of 3ae in the presence of external thiol to regenerate the unmodified 1a, which occurred in other methods,[16b],[33a] was not detected in our hands (using 2-mercaptoethanol, Figure S58). In contrast, the iodoacetamide (IAM) peptide conjugate decomposed under the aforementioned conditions (Figures S61–S63).
7. Stability Study and Reaction Rate study of the Peptide Conjugates
1) Stability study of the peptide conjugate 3ae
Figure S56.Stability study of the peptide conjugate 3ae
2) Stability of 3ae (1 mM) in buffers at pH 2.0, pH 8.0, pH 10.0, pH 13.0 at 37 °C for
Figure S57.Stability of 3ae ( 1mM) in buffers at pH 2.0, pH 8.0,pH 10.0,pH 13.0
3) Stability of 3ae (1 mM) in the presence of external thiol ( 2- mercaptoethanol)，pH […]
(§2) Figure S58.Stability of 3ae ( 1mM) in the presence of external thiol
(§3) 4) Stability of 3ae (10 μM) when treated with large excess ((10mM H2O2 in buffer) of
Figure S59.Stability of 3ae ( 10μM) when tr eated with large excess of H 2O2 (at pH 4,

[4] = assay type: physicochemical; conditions: conjugate 10 μM, 10 mM H2O2 in buffer, pH 4, 8 and 10, 37 °C, 24 h (Figure S59)
Source text: as §1, §2, §3
Figure S59.Stability of 3ae ( 10μM) when tr eated with large excess of H 2O2 (at pH 4, […]
7) Stability of iodoacetamide labelling product (10 μM) when treated with large
excess ((10mM H2O2 in buffer)of H 2O2 (at pH 2 and 13 at 37 °C) for 24 h
Figure S62.Stability of iodoacetamide labelling product (10 μM) when treated with
large excess of H2O2 (at pH 2 and 13at 37 °C)
8) Stability of iodoacetamide labelling product (10 μM) when treated with bovine
Figure S63.Stability of iodoacetamide labelling product (10 μM) when treated with […]

Structure (SMILES): C#CN(C)S(=O)(=O)c1ccc(C)cc1 [2a, N-methylynetoluenesulfonamide]
- Water-solubility [1]: poor

Structure (SMILES): C#CN(CCO)S(=O)(=O)C(F)(F)F [2e]
- Solubility in water relative to 2a ([1]; compared with 2a): enhanced
- Apparent second-order rate constant for the thiol conjugation (k2, app.) [2]: 0.2399 ± 0.002 M^–1 s^–1

Structure (SMILES): CCOC(=O)[C@H](CS/C=C\N(CCO)S(=O)(=O)C(F)(F)F)NC(=O)[C@H](C)NC(=O)OC(C)(C)C [3ae]
- Cleavage in the presence of external thiol to regenerate the unmodified 1a [3]: not detected
- β-syn elimination when treated with a large excess of H2O2 [4]: did not undergo β-syn elimination
